The values that follow come from US11142548B2, “Agents that activate CD47 and their use in the treatment of inflammation” (SORBONNE UNIVERSITE, priority 2016, dated 2021).

Test [1] has as its system microglial cells. The experiment in a line: Subretinal adoptive transfer and clearance of CFSE-labeled microglial cells. The test is classed as in vivo, mouse. The note with it: 24 h after subretinal transfer into wildtype mice, co-injected TSP1 10 μg/ml. As to the method: Microglial cells were prepared from PBS-perfused mice. After dissociation of brain or retina with Neural Dissociation Kit Papain (miltenyi Biotech), 70 μm filtered cell suspensions were washed and resuspended in 75% isotonic Percoll (Percoll Plus, GE Healthcare), overlayed with 25% Percoll and PBS. Cells were centrifuged at 1000 g for 30 min at […]. The ring at the 75%/25% interface was collected, washed with PBS and centrifuged.
According to Levy et al., (EMBO Mol Med. 2015, 7:211-226), brain microglia of the indicated mouse strains were sorted as describe above, labeled in 10 μM CFSE (Life Technologies), washed and resuspended in PBS, 12000 cells (4 μL) were injected using glass microcapillaries (Eppendorf) and a microinjector in the subretinal space of anesthetized 10-14 weeks old wildtype mice. A hole was pierced with the glass capillary prior to the subretinal injection to avoid intra-ocular pressure increase and to allow retinal detachment with 4 μL of solution. The subretinal injection was verified by fundoscopy. In specific experiments, cells were co-injected with recombinant human TSP1 (10 μg/ml, R&D Systems), Eyes were enucleated after 24 hours, fixed in PFA 4% 30 minutes and labeled with DAPI. Eyes with hemorrhages were discarded. CFSE+cells in the subretinal space were quantified on flatmounts on the RPE side of the retina and on the apical side of the RPE.

Test [2] concerns the target CD47 (Homo sapiens, UniProt Q08722). Particulars: comparison in words, no test described; cited from earlier work.
The test system of test [3] is subretinal IBA-1+ mononuclear monocytes. The experiment in a line: Laser-induced subretinal inflammation in wildtype- and Tsp1-/- mice. It counts as in vivo, mouse. The note with it: wildtype- and Tsp1-/- mice, intravitreal at d3, d7; FIG. 3 statistics given for Tsp1-/- mice vs PBS. On the procedure:
Laser-coagulations were performed with a 532 nm ophtalmological laser mounted on an operating microscope (Vitra Laser, 532 nm, 450 mW, 50 ms, and 250 μm): Intravitreal injections of 2 μl of HTRA1 and/or TSP1 were performed using glass capillaries (Eppendorf) and a micro injector. The 2 μl injection solution contained 50 μg/ml TSP1 and HTRA1, corresponding to an intraocular concentration of 5 μg/ml of each protein assuming their dilution by approximately 1/10th in the intra-ocular volume. […] A volume of 2 μl of a 100 μM solution of either PBS, recombinant TSP1 (10 μg/ml), the 4NGG control peptide or the CD47-activating peptide PKT16 (200 μM) was injected at day 4 (when MP infiltration is maximal) and day 7 after the injury and evaluated subretinal inflammation on flatmounted RPE/choroidal flatmounts at day 10.
Eyes were enucleated, fixed in 4% PFA 30 minutes and sectioned at the limbus; the cornea and lens were discarded. […] Choroids and retinas were flatmounted and viewed with a fluorescence microscope DM5500B (Leica). IBA-1+ cells were counted on whole RPE/choroidal flatmounts and on the outer segment side of the retina. […]

Chain of CD47 (Q08722 19-323, species assumed): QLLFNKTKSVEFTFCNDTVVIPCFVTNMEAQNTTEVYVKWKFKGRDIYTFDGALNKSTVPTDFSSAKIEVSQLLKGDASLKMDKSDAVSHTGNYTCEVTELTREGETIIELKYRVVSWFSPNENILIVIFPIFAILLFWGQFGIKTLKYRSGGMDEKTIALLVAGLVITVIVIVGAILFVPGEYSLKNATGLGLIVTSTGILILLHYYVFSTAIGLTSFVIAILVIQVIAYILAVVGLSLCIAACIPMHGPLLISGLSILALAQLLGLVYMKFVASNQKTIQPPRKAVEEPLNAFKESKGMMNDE

“recombinant TSP1: recombinant human TSP1 (R&D Systems), natural ligand and agonist of CD47”: in test [1] (CFSE+ Cd47-/- microglial cells), the “elimination of Cd47-/- microglial cells” value is “no effect”. Moreover, the “elimination of Tsp1-/- microglial cells” value in test [1] (CFSE+ Tsp1-/- microglial cells) is recorded as “reversed the phenotype”. The “elimination of wildtype microglial cells” value in test [1] (CFSE+ wildtype microglial cells) is “very significantly accelerated the elimination”. Besides, the “half maximal effective concentration (EC50) relative to CD47-activating peptides or TSP2” value in test [2] is on record as “much lower”. Besides, in test [3], the “reduction of laser-induced subretinal inflammation” value is on record as “significantly reduces”.
